According to patent publication US7071221B2, “Heterocyclic oxime compounds” (Les Laboratoires Servier, priority 2004, dated 2006):

Test system: ob/ob mouse
Assay: Antidiabetic and hypolipidaemic effect in the ob/ob mouse
Format: in vivo
Conditions: female ob/ob mouse; for decrease of glycaemia compared to the control group: twice per day for four days (10 mg/kg i.p. or 30 mg/kg per os; route not given), glycaemia 24 hours after final administration
Source text: Mutations in laboratory animals and also different sensitivities to dietary regimens have allowed the development of animal models having non-insulin dependent diabetes and hyperlipidaemia associated with obesity and with resistance to insulin.
Genetic mice models (ob/ob) (Diabetes, 1982, 31 (1), 1–6) and Zucker (fa/fa) rats have been developed by various laboratories in order to understand the physiopathology of those diseases and test the efficacy of new antidiabetic compounds (Diabetes, 1983, 32, 830–838).
Antidiabetic and Hypolipidaemic Effect in the ob/ob Mouse
The 10-week-old female ob/ob mouse (Harlan) is used for the in vivo tests. The animals are kept in a light-darkness cycle of 12 hours at 25° C. The mouse has a basal hyperglycaemia of 2 g/l. The animals are randomly selected in terms of their glycaemia to form groups of six. The compounds tested by the intraperitoneal route are dissolved in a mixture of dimethyl sulphoxide (10%) and Solutol (15%) to be administered at 10 mg/kg in a volume of 2.5 ml/kg twice per day for four days. By the per os route, the compounds are tested at 30 mg/kg administered in a volume of 2.5 ml/kg of 1% HEC twice per day for four days. The control groups receive the solvents under the same conditions as the treated groups. The activity of the products is evaluated by measuring glycaemia 24 hours after the final administration and by measuring body weight daily.

Compound | decrease of the gain of weight compared to the control group (twice per day for four days) | decrease of glycaemia compared to the control group | change in body weight (four days treatment, body weight measured daily) | increase of the body weight compared to the increase of body weight of the control group (twice per day for four days)
CON=C(c1ccccc1)c1ccc2c(c1)sc(=O)n2CCOc1ccc(CC(OCC(F)(F)F)C(=O)OC)cc1 (centres unmarked) [Example 3, Methyl 3-{4-[2-(6-[(methoxyimino)(phenyl)methyl]-2-oxo-1,3-benzothiazol-3(2H)-yl)ethoxy]phenyl}-2-(2,2,2-trifluoroethoxy)-propanoate] | 80% | 51% | – | –
CN(CCOc1ccc(CC2SC(=O)NC2=O)cc1)c1ccccn1 (centres unmarked) [Rosiglitazone, rosiglitazone] | – | 61% | significant increase | 33%
